What was measured:
HIGA mice = experiment: Inhibition of decrease in renal function in IgA nephropathy mouse models (HIGA mice), blood urea nitrogen; type: in vivo; details: for blood urea nitrogen level (BUN), compared with the vehicle group: 10 mpk orally once a day for 6 weeks, FIG. 3, 10 mg/kg
Procedure: The present test was carried out, using HIGA mice that had been reported as mouse models of IgA nephropathy (Muso et al., Kidney International 1996 50: 1946-1957). A vehicle, a fumarate of Compound 1, or Ibrutinib (Comparative Example 1) was orally administered to 14-week-old to 16-week-old HIGA mice (Japan SLC, Inc.) once a day, continuously for 6 weeks. The control mice were not IgA nephropathy mouse models (HIGA mice), but were Balb/c mice (Japan SLC, Inc.) with the same age in weeks as described above. The vehicle was 0.5% HPMC. The daily doses were set as the following: the vehicle: 10 ml/kg, the fumarate of Compound 1: 10 mpk, and Ibrutinib: 30 mpk. […] Peripheral blood was collected from […], and the urea nitrogen level in the blood was measured. Using UREA NITROGEN (BUN) Colorimetric Detection Kit (Arbor Assays), the urea nitrogen level in the blood was measured.

[1] = system: Human monocytic cells THP-1; experiment: Inhibition of TNFα cytokine production by IgG stimulation; type: cell-based; details: THP-1 cells on solid-phased human IgG, cultured 4 hours, ELISA; FIG. 2
Procedure: The present test was carried out with reference to the Non-Patent literature (Chang et al., Arthritis Res Ther 2011 13(4): R115). Human monocytic cells THP-1 suspended in a 10% FBS-containing RPMI1640 culture medium were seeded on a 96-well plate, on which human IgG had been solid-phased. A fumarate of Compound 1 was serially diluted with DMSO, and was then added to the plate, on which the cells had been seeded. The cells seeded into a well of the plate, in which IgG had not been solid-phased, were used as a control. DMSO, which was added to the plate at the same time as the seeding of the cells, was defined as a vehicle. The cells were cultured for 4 hours at 37° C. in a CO2 incubator, and thereafter, a culture supernatant was recovered. Using an anti-TNFα ELISA kit (R & D system), the concentration of TNFα in the culture supernatant was measured.

mouse B cells = experiment: Effect of inhibiting IgG production in mouse B cells; type: cell-based; details: CD43-negative B cells from BALB/c mouse spleen, anti-CD40 antibody and IL-4 stimulation, cultured 8 days, ELISA; FIG. 1
Procedure: The present test was carried out with reference to the Non-Patent literature (Castigli et al., J Allergy Clin Immunol 2007 120(4): 885-91). A CD43-negative B cell fraction was separated from the spleen collected from BALB/c mice, and was then suspended in a 10% FBS-containing RPMI1640 culture medium, to which an anti-CD40 antibody and IL-4 had been added. A fumarate of Compound 1 was serially diluted with DMSO, and was then added to a plate, at the same time as the seeding of the cells onto the plate. A 10% FBS-containing RPMI culture medium, to which neither an anti-CD40 antibody nor IL-4 had been added, was used as a control. DMSO, which was added to a plate at the same time as the seeding of the cells on the plate, was defined as a vehicle. The cells were cultured for 8 days at 37° C. in a CO2 incubator, and thereafter, a culture supernatant was recovered. Using an anti-IgG antibody ELISA kit (Thermo Fisher Scientific), the IgG concentration in the culture supernatant was measured.

[2] = AUC comparison of fumarate of Compound 1 and Ibrutinib; type: in vivo; details: fumarate of Compound 1 (1 mpk) compared with Ibrutinib (3 mpk)

Row | SMILES | blood urea nitrogen level (BUN), compared with the vehicle group (HIGA mice) | medicinal effects in HIGA mice (blood urea nitrogen level) (HIGA mice; orally once a day for 6 weeks, fumarate of Compound 1 10 mpk, Ibrutinib 30 mpk) | concentration of TNFα in the culture supernatant (TNFα production) [1] | IgG concentration in the culture supernatant (IgG production) (mouse B cells) | AUC values [2] | blood urea nitrogen level (BUN), compared with Comparative Example 1 (Ibrutinib) (HIGA mice; fumarate of Compound 1 10 mpk vs Ibrutinib 30 mpk, orally once a day for 6 weeks, FIG. 3)
1 | C=CC(=O)N1CCC[C@@H](n2nc(C(=O)Nc3nc4ccccc4o3)c3c(N)ncnc32)C1 [Compound 1, (R)-1-(1-acryloylpiperidin-3-yl)-4-amino-N-(benzo[d]oxazol-2-yl)-1H-pyrazolo[3,4-d]pyrimidine-3-carboxamide] | significantly reduce the blood urea nitrogen level (BUN) | exhibited excellent medicinal effects | inhibited TNFα production in a dose-dependent manner | inhibited IgG production in a dose-dependent manner | – | –
2 | C=CC(=O)N1CCC[C@@H](n2nc(-c3ccc(Oc4ccccc4)cc3)c3c(N)ncnc32)C1 [Ibrutinib, reference compound] | – | – | – | – | equivalent AUC values | –
3 | C=CC(=O)N1CCC[C@@H](n2nc(C(=O)Nc3nc4ccccc4o3)c3c(N)ncnc32)C1 [fumarate of Compound 1, (R)-1-(1-acryloylpiperidin-3-yl)-4-amino-N-(benzo[d]oxazol-2-yl)-1H-pyrazolo[3,4-d]pyrimidine-3-carboxamide] | inhibits an increase in the blood urea nitrogen level | – | – | – | equivalent AUC values | significantly reduces the blood urea nitrogen level
